For 2 molecules, Activity results are on record in ChEMBL document CHEMBL5678818, “Discovery of potent SOS1 inhibitors that block RAS activation via disruption of the RAS-SOS1 interaction” (Proc Natl Acad Sci U S A, 2019).

Assay [1] deals with Proto-oncogene tyrosine-protein kinase receptor Ret (Homo sapiens), P07949 [M918T]. Kind of assay: Inhibition of RET M918T mutant (unknown origin) assessed as residual activity at 1000 nM by KINOMEscan analysis relative to control.
Assay [2] deals with T1, Cytoplasmic tyrosine-protein kinase BMX (Homo sapiens) (UniProt P51813).
T1 sequence (whole entry): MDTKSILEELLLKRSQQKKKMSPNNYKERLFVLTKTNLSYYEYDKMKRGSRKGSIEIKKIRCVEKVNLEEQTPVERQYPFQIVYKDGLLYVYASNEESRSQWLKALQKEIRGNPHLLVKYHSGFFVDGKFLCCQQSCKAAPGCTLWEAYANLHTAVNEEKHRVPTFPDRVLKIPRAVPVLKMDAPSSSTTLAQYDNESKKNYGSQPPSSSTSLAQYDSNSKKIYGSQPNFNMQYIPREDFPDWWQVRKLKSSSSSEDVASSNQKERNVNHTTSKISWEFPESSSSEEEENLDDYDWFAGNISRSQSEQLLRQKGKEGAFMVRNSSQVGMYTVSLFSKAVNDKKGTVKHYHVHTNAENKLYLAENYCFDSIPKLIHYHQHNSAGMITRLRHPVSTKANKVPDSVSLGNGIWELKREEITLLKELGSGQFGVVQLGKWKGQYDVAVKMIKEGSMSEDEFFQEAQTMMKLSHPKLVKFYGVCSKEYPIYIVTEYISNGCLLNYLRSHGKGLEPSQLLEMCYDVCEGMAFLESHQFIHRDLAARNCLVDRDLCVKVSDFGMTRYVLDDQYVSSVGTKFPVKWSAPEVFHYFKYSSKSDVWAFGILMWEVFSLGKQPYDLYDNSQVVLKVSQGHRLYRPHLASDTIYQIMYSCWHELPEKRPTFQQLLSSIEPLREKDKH
Kind of assay: Inhibition of BMX (unknown origin) assessed as residual activity at 1000 nM by KINOMEscan analysis relative to control.

The subject of assay [3] is Tyrosine-protein kinase ABL1 (Homo sapiens), P00519 [F317I]. Kind of assay: Inhibition of phosphorylated ABL1 F317I mutant (unknown origin) assessed as residual activity at 1000 nM by KINOMEscan analysis relative to control.
Assay [4] concerns the target T2, Serine/threonine-protein kinase LATS1 (Homo sapiens) (UniProt O95835).
T2 sequence (whole entry): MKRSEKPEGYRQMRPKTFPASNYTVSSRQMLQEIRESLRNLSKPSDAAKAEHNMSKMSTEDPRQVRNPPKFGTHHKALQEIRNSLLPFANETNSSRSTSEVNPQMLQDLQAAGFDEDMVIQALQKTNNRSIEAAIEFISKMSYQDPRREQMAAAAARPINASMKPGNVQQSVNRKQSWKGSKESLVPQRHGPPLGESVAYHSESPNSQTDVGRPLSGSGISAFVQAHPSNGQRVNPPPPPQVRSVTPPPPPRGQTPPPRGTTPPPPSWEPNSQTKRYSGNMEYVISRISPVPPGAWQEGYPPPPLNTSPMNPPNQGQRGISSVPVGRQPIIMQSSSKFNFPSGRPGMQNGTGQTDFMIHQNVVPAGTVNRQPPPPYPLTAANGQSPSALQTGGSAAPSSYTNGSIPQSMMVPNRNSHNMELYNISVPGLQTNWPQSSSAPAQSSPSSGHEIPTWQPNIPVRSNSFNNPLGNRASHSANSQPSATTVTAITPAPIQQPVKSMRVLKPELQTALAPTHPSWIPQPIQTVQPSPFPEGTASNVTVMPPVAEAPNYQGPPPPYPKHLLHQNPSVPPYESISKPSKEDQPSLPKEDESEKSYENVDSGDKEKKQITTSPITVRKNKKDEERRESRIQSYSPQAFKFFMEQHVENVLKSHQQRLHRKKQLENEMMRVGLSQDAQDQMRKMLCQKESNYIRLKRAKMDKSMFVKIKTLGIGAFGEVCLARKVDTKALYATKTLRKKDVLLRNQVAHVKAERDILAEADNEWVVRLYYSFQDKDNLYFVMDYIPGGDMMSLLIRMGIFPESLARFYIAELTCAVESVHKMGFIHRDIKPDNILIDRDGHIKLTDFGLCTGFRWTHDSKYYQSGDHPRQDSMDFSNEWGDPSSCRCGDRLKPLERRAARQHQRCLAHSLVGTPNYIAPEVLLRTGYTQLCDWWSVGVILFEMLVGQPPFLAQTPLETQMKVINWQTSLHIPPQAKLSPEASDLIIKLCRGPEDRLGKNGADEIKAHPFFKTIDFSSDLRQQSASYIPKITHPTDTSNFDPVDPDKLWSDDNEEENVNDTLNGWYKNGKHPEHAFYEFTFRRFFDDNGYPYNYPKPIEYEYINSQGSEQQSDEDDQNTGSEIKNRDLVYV
In words: Inhibition of LATS1 (unknown origin) assessed as residual activity at 1000 nM by KINOMEscan analysis relative to control.

The target of assay [5] is Ephrin type-A receptor 7 (Homo sapiens) (UniProt Q15375). In words: Inhibition of EPHA7 (unknown origin) assessed as residual activity at 1000 nM by KINOMEscan analysis relative to control.
Assay [6] concerns the target T3, Dual specificity tyrosine-phosphorylation-regulated kinase 2 (Homo sapiens) (UniProt Q92630).
T3 sequence (whole entry): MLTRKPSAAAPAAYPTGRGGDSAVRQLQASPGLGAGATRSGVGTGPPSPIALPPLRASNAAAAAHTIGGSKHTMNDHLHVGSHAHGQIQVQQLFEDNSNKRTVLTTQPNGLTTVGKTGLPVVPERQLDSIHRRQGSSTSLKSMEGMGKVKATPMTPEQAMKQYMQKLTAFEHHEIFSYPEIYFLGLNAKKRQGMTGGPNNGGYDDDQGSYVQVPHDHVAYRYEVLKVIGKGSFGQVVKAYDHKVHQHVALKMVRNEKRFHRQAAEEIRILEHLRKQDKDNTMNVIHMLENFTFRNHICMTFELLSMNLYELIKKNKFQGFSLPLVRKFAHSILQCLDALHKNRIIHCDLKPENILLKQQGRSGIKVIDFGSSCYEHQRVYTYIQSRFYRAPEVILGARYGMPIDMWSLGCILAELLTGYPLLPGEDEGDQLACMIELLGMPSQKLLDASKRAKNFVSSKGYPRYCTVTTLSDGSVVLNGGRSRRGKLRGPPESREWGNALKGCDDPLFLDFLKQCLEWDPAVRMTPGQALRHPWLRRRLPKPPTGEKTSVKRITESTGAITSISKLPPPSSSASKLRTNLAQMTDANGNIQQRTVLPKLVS
Kind of assay: Inhibition of DYRK2 (unknown origin) assessed as residual activity at 1000 nM by KINOMEscan analysis relative to control.

In assay [7] the target is Serine/threonine-protein kinase N1 (Homo sapiens) (UniProt Q16512). In words: Inhibition of PKN1 (unknown origin) assessed as residual activity at 1000 nM by KINOMEscan analysis relative to control.
Assay [8] addresses Fibroblast growth factor receptor 1 (Homo sapiens) (UniProt P11362). In words: Inhibition of FGFR1 (unknown origin) assessed as residual activity at 1000 nM by KINOMEscan analysis relative to control.

The structures appear in SMILES notation.

Ephrin type-A receptor 7 (Homo sapiens), sequence (Q15375 28-998 limits assumed): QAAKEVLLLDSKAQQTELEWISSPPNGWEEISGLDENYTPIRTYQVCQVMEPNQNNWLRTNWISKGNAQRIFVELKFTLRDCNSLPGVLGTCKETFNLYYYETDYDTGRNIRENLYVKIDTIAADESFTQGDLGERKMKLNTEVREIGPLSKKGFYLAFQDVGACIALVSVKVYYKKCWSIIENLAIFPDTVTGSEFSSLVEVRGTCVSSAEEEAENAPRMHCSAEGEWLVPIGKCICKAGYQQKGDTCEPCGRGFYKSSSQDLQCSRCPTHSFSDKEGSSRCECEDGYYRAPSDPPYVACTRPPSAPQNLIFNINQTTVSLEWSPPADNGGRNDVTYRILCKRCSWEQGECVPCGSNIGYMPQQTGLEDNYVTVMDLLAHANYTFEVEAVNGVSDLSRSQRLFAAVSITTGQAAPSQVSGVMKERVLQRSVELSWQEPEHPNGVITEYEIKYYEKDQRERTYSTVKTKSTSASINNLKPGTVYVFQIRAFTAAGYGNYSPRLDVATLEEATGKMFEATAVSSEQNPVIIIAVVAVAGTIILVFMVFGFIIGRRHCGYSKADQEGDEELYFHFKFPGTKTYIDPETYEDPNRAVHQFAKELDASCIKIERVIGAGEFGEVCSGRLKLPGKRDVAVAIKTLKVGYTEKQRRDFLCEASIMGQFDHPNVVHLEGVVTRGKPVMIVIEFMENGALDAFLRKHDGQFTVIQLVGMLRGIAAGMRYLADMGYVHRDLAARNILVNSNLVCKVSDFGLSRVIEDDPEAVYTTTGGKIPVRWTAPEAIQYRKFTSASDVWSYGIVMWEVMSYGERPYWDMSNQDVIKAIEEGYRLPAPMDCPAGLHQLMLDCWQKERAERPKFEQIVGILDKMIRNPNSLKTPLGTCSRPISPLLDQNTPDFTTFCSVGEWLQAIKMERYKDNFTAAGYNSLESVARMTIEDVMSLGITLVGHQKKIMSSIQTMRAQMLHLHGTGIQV
Serine/threonine-protein kinase N1 (Homo sapiens), sequence (Q16512 2-942 limits assumed): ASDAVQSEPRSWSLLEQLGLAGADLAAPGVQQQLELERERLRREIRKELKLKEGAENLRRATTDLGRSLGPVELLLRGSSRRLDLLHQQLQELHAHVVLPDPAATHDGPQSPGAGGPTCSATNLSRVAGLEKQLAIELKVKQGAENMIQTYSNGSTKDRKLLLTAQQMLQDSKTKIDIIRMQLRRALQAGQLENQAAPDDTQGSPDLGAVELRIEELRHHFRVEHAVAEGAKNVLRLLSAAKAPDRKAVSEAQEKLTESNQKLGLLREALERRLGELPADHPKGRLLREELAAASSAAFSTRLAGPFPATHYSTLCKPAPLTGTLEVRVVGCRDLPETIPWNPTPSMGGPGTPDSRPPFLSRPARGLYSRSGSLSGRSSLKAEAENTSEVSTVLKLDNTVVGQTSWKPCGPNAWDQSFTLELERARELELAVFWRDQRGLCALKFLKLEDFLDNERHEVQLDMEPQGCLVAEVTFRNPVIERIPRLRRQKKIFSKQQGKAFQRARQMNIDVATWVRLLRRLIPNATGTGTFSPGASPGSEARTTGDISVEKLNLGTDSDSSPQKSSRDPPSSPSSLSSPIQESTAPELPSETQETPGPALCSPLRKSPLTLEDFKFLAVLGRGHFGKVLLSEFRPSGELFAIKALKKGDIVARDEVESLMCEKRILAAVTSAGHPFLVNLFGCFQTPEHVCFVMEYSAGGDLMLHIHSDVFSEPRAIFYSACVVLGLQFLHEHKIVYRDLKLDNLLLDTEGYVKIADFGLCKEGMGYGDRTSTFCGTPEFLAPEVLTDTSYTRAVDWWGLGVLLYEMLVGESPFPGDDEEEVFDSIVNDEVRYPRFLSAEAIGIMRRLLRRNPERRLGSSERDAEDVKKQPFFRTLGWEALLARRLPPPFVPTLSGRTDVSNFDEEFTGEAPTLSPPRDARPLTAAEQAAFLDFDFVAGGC
Tyrosine-protein kinase ABL1 (Homo sapiens), P00519 [F317I], sequence (P00519 whole entry F317I): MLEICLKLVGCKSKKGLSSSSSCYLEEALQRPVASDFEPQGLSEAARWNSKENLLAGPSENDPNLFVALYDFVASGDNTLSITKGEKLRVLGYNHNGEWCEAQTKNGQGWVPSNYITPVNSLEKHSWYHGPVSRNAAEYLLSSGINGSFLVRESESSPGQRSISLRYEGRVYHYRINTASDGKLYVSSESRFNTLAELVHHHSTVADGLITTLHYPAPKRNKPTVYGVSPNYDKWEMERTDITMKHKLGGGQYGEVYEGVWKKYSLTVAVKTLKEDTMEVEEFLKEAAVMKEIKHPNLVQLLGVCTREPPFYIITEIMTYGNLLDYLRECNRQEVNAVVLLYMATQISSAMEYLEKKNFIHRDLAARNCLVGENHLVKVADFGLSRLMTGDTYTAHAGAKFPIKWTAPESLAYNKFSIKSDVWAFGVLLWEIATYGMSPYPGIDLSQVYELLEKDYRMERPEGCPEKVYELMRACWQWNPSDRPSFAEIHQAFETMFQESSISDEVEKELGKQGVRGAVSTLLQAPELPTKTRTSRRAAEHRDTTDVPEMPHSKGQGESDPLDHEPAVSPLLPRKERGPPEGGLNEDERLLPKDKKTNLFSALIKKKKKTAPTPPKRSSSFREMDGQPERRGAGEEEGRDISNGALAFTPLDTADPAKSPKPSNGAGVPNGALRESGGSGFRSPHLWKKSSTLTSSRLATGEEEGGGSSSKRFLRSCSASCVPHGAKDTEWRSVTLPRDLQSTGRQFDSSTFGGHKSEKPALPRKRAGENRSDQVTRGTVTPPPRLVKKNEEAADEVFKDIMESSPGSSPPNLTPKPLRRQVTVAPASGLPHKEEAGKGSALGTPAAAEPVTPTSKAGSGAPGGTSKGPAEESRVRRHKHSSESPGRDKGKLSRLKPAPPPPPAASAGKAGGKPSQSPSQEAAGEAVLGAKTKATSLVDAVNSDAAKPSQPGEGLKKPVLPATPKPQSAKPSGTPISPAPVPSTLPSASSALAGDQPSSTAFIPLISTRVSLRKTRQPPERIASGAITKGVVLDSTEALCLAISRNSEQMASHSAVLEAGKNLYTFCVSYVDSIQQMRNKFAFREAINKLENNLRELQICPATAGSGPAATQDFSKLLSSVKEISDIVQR
Fibroblast growth factor receptor 1 (Homo sapiens), sequence (P11362 22-822 limits assumed): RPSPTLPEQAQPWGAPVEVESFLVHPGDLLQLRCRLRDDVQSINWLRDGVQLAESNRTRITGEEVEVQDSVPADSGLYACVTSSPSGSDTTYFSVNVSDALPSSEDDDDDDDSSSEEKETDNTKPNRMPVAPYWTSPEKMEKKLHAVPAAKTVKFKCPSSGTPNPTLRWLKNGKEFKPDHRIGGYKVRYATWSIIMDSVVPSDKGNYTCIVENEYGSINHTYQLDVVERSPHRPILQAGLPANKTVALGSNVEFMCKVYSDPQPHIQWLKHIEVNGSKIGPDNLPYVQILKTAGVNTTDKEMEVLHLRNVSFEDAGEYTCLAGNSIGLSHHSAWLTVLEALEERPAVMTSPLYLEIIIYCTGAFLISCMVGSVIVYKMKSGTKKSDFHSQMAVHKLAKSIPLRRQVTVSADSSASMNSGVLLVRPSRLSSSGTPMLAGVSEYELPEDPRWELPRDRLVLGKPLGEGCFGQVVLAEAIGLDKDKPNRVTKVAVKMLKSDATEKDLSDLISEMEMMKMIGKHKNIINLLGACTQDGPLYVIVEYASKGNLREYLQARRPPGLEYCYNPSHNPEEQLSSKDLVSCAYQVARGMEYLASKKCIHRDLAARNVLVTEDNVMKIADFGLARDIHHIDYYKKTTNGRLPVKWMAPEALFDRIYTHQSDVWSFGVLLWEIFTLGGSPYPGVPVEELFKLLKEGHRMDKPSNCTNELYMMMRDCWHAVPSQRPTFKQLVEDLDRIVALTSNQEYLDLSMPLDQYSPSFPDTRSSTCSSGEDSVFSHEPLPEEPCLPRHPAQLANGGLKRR
Proto-oncogene tyrosine-protein kinase receptor Ret (Homo sapiens), P07949 [M918T], sequence (P07949 whole entry M918T): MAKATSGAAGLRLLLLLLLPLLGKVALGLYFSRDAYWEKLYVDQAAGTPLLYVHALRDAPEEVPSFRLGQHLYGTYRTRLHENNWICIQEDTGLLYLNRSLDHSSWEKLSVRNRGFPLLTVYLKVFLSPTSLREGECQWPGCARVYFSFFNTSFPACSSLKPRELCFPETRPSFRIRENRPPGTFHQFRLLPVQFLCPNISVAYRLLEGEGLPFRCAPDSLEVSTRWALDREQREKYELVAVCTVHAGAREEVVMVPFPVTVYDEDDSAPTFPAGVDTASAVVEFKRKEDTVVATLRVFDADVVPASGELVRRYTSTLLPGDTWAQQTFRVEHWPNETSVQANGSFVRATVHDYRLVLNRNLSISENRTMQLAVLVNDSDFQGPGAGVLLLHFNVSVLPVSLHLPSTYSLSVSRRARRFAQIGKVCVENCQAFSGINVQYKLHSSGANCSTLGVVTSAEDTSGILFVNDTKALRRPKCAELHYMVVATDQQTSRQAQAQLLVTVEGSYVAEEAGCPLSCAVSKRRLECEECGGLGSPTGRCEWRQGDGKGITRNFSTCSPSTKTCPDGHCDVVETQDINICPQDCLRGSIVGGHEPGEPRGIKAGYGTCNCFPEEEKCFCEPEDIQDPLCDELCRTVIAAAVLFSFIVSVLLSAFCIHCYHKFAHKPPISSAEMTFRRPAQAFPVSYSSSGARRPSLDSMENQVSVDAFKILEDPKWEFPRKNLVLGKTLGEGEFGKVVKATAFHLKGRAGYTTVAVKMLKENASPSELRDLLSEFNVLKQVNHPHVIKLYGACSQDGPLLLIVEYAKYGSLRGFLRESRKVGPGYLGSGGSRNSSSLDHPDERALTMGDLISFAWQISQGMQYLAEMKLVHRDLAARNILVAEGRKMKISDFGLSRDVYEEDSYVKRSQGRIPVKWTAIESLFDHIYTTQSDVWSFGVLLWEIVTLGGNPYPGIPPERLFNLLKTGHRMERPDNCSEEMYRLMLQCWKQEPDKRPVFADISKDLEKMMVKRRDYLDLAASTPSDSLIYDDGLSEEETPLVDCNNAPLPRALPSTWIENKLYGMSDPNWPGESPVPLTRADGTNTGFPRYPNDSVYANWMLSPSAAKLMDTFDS

Take `COc1cc2ncnc(N[C@H](C)c3cccc4ccccc34)c2cc1OC`: the Activity stood at 100% in assay [1]; 97% in assay [2]; 71% in assay [3]; 100% in assay [4]; 88% in assay [5]; 90% in assay [6]. In addition, the Activity in assay [7] worked out at 97%; in assay [8] it was 80%.

In the case of `COc1cc2nc(C)nc(N[C@H](C)c3cccc(-c4cn[nH]c4)c3)c2cc1OC`, the Activity amounted to 60% in assay [1]; 100% in assay [2]; 75% in assay [3]; 98% in assay [4]; 100% in assay [5]; 99% in assay [6]. The Activity in assay [7] is 100%; in assay [8] it was 65%.
